Source: article PMC4685510, “A Cell Biologist’s Field Guide to Aurora Kinase Inhibitors” (Frontiers in Oncology, 2015)

What was measured:
Assay in all cases: biochemical
Type in all cases: biochemical
[1] = molecular target: 363 human kinases (including Aurora A/B/C) (Homo sapiens, UniProt Q86Z02); conditions: HIPK1; for remaining activity at 0.1 µM: 100 nM; for remaining activity at 0.1 µM / remaining activity at 0.5 µM: read-out: % Enzyme Activity (relative to DMSO controls)
Description: (§1) However, the Aurora A/B selectivity ratios derived from our in vitro and in vivo data can be compared to prioritize inhibitors.

[2] = molecular target: 363 human kinases (including Aurora A/B/C) (Homo sapiens, UniProt Q6DT37); conditions: DMPK2, [ATP] 2.5 µM; for remaining activity at 0.1 µM: 100 nM; for remaining activity at 0.1 µM / remaining activity at 0.5 µM: read-out: % Enzyme Activity (relative to DMSO controls)
Description: as §1

[3] = molecular target: 363 human kinases (including Aurora A/B/C) (Homo sapiens, UniProt P22455); conditions: FGFR4, [ATP] 100 µM; for remaining activity at 0.1 µM: 100 nM; for remaining activity at 0.1 µM / remaining activity at 0.5 µM: read-out: % Enzyme Activity (relative to DMSO controls)
Description: as §1

[4] = molecular target: T1, 363 human kinases (including Aurora A/B/C) (Homo sapiens, UniProt Q96PN8); conditions: TSSK3/STK22C; for remaining activity at 0.1 µM: 100 nM; for remaining activity at 0.1 µM / remaining activity at 0.5 µM: read-out: % Enzyme Activity (relative to DMSO controls)
T1 sequence (Q96PN8 1-268): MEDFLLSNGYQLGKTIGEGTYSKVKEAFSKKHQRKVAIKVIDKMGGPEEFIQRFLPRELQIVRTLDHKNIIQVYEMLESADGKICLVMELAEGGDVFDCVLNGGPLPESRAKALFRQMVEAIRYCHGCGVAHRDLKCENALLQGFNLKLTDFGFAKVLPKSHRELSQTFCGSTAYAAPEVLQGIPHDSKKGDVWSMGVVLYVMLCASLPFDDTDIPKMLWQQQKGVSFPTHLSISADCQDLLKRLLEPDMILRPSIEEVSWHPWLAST
Description: as §1

[5] = molecular target: 363 human kinases (including Aurora A/B/C) (Homo sapiens, UniProt P41279); conditions: COT1/MAP3K8, [ATP] 50 µM; for remaining activity at 0.1 µM: 100 nM; for remaining activity at 0.1 µM / remaining activity at 0.5 µM: read-out: % Enzyme Activity (relative to DMSO controls)
Description: as §1

[6] = molecular target: 363 human kinases (including Aurora A/B/C) (Homo sapiens, UniProt Q9NY57); conditions: STK32B/YANK2; for remaining activity at 0.1 µM: 100 nM; for remaining activity at 0.1 µM / remaining activity at 0.5 µM: read-out: % Enzyme Activity (relative to DMSO controls)
Description: as §1

[7] = molecular target: 363 human kinases (including Aurora A/B/C) (Homo sapiens, UniProt P06213); conditions: IR; for remaining activity at 0.1 µM: 100 nM; for remaining activity at 0.1 µM / remaining activity at 0.5 µM: read-out: % Enzyme Activity (relative to DMSO controls)
Description: as §1

[8] = molecular target: 363 human kinases (including Aurora A/B/C) (Homo sapiens, UniProt P53779); conditions: JNK3; for remaining activity at 0.1 µM: 100 nM; for remaining activity at 0.1 µM / remaining activity at 0.5 µM: read-out: % Enzyme Activity (relative to DMSO controls)
Description: as §1

[9] = molecular target: T2, 363 human kinases (including Aurora A/B/C) (Homo sapiens, UniProt P42680); conditions: TEC; for remaining activity at 0.1 µM: 100 nM; for remaining activity at 0.1 µM / remaining activity at 0.5 µM: read-out: % Enzyme Activity (relative to DMSO controls)
T2 sequence (P42680 1-631): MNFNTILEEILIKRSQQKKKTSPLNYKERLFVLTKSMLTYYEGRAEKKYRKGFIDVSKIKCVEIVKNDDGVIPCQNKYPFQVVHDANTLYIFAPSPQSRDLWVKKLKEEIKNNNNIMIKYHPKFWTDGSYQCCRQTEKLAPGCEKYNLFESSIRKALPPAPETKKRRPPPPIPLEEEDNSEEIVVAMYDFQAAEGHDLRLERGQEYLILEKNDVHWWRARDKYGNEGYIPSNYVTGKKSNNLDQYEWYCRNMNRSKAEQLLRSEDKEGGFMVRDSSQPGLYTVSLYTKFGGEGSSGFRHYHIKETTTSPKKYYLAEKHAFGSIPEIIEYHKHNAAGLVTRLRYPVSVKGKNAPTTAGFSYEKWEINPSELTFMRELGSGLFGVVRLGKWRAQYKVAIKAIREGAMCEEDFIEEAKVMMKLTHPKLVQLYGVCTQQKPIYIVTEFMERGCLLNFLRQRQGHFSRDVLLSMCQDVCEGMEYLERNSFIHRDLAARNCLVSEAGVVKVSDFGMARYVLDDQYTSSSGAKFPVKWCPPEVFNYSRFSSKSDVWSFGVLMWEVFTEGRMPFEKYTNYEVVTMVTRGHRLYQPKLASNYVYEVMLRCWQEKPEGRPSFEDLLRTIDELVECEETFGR
Description: as §1

[10] = molecular target: T3, 363 human kinases (including Aurora A/B/C) (Homo sapiens, UniProt Q9UL54); conditions: TAOK2/TAO1; for remaining activity at 0.1 µM: 100 nM; for remaining activity at 0.1 µM / remaining activity at 0.5 µM: read-out: % Enzyme Activity (relative to DMSO controls)
T3 sequence (Q9UL54 1-1235): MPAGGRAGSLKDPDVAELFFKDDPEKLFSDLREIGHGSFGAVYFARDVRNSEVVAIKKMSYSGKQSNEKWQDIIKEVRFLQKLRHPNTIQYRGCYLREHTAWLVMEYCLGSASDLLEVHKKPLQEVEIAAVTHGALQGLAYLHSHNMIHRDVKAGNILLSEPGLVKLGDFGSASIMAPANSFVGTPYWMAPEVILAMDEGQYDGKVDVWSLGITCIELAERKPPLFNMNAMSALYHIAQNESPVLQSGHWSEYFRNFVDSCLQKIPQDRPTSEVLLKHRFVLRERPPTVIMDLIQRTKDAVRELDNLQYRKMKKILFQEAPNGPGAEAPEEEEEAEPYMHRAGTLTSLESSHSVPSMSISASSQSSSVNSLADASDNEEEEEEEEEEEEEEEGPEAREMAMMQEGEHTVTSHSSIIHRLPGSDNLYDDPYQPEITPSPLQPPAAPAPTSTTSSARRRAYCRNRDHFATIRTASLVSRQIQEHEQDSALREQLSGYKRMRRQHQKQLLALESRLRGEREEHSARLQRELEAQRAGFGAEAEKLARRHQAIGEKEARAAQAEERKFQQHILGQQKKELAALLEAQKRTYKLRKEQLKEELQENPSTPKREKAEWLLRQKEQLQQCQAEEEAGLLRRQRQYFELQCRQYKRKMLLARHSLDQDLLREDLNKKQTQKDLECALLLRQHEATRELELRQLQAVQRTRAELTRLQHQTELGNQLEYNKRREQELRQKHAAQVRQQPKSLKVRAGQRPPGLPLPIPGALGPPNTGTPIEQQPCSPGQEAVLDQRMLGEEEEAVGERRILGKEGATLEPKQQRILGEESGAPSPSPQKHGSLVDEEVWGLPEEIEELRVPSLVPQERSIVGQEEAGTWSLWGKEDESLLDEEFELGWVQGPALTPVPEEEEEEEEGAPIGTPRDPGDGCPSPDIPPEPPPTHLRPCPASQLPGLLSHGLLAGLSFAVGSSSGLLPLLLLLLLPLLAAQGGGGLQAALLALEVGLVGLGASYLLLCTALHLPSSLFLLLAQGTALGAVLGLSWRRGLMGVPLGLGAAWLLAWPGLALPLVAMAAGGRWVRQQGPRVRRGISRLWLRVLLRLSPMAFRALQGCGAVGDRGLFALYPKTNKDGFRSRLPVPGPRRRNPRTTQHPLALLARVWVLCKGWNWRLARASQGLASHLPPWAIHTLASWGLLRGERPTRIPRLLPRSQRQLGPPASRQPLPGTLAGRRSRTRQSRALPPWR
Description: as §1

Sequence of 363 human kinases (including Aurora A/B/C) (Homo sapiens, UniProt P06213) (P06213 28-1382): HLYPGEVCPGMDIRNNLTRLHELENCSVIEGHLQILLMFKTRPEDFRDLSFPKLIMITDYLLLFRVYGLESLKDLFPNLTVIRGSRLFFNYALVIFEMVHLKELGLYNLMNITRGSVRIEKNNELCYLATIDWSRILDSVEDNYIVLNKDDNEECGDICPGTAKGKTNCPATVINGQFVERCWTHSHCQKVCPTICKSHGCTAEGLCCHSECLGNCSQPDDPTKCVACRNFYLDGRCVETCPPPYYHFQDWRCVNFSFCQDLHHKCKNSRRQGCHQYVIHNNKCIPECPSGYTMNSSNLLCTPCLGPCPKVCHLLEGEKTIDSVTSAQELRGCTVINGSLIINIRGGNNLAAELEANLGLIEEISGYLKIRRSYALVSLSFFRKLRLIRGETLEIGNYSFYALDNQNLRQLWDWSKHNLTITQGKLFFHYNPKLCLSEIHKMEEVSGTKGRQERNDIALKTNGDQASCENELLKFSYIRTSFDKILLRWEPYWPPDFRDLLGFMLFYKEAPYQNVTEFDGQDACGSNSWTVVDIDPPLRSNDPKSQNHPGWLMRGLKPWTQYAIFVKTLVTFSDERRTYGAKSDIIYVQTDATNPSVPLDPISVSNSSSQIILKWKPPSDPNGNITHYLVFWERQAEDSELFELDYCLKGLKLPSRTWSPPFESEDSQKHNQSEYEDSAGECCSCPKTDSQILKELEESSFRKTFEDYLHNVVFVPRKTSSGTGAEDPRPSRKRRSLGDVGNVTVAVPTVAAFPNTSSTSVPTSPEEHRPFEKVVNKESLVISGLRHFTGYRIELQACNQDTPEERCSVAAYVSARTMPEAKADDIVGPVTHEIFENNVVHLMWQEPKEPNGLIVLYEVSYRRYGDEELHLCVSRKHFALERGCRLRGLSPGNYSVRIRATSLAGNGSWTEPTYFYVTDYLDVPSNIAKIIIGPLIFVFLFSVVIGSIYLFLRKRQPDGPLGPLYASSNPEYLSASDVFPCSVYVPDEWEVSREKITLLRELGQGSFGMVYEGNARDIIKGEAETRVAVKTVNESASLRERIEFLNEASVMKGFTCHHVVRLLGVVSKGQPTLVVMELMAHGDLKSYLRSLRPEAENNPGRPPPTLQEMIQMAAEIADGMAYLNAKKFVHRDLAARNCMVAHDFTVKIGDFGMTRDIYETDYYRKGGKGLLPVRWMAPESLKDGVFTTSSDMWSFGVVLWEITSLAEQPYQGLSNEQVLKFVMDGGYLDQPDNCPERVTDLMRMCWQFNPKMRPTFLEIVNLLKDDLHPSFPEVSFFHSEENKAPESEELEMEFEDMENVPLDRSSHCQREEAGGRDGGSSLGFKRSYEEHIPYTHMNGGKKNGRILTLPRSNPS
Sequence of 363 human kinases (including Aurora A/B/C) (Homo sapiens, UniProt P22455) (P22455 22-802): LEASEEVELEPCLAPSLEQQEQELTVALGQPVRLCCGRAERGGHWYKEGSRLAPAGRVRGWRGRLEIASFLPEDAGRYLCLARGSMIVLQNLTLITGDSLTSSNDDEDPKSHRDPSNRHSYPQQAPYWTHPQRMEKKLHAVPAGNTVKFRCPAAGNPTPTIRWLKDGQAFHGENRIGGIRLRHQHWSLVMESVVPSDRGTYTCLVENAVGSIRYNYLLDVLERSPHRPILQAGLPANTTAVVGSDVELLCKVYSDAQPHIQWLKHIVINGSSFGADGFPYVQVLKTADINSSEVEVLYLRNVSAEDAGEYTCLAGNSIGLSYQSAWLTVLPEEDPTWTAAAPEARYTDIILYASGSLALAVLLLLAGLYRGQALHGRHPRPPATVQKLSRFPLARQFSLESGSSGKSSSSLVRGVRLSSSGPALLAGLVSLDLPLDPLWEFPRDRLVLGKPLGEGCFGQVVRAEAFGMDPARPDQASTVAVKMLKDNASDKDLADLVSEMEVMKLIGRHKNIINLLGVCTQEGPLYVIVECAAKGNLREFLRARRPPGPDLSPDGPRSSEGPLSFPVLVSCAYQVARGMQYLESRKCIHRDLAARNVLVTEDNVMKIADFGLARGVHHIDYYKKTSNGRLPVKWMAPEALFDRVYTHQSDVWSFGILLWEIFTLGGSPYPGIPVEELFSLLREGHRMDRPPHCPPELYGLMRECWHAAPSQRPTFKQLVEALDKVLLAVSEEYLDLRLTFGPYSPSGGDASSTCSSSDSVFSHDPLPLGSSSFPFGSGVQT
Sequence of 363 human kinases (including Aurora A/B/C) (Homo sapiens, UniProt Q9NY57) (Q9NY57 whole entry): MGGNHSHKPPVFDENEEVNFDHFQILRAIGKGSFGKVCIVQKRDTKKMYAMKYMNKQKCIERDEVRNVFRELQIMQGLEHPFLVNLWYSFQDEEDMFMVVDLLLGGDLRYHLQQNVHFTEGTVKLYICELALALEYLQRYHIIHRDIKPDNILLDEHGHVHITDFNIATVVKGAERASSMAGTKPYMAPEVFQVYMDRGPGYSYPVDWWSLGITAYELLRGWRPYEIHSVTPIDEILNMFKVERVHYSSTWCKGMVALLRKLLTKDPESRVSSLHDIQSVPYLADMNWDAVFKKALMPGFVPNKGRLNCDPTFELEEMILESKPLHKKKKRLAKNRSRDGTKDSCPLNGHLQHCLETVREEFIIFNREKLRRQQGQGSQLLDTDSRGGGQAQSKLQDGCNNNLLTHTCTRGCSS
Sequence of 363 human kinases (including Aurora A/B/C) (Homo sapiens, UniProt Q86Z02) (Q86Z02 whole entry): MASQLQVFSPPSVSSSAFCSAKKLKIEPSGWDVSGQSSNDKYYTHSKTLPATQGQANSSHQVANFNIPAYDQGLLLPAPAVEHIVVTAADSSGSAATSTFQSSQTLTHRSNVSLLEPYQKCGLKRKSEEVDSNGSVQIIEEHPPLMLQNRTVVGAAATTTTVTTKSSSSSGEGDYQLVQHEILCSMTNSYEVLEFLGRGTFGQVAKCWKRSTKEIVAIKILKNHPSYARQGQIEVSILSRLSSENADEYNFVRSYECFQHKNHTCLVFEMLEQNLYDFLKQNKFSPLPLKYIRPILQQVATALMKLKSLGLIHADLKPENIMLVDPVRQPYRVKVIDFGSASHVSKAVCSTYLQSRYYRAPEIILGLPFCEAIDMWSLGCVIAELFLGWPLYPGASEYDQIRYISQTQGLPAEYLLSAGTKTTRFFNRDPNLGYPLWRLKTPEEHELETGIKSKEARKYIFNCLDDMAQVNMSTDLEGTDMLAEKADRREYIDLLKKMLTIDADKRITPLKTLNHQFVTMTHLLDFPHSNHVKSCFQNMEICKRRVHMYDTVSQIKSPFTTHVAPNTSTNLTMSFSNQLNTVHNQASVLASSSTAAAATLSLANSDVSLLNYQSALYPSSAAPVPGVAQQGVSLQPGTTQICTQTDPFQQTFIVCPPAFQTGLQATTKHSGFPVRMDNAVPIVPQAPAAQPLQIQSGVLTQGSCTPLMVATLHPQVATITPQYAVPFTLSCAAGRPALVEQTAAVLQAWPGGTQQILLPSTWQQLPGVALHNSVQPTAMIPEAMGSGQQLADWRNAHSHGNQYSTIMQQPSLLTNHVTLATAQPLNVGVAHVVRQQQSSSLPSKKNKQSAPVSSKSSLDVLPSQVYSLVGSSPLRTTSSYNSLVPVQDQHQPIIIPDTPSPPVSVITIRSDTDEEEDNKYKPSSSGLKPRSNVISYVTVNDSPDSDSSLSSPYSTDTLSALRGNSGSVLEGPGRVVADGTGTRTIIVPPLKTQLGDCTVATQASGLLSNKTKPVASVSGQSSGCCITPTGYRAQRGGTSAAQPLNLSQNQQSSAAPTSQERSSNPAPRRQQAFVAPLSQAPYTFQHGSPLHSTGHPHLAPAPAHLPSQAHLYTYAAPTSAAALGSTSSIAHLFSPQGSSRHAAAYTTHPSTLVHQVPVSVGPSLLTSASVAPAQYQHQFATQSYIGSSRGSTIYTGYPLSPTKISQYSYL
Sequence of 363 human kinases (including Aurora A/B/C) (Homo sapiens, UniProt P53779) (P53779 whole entry): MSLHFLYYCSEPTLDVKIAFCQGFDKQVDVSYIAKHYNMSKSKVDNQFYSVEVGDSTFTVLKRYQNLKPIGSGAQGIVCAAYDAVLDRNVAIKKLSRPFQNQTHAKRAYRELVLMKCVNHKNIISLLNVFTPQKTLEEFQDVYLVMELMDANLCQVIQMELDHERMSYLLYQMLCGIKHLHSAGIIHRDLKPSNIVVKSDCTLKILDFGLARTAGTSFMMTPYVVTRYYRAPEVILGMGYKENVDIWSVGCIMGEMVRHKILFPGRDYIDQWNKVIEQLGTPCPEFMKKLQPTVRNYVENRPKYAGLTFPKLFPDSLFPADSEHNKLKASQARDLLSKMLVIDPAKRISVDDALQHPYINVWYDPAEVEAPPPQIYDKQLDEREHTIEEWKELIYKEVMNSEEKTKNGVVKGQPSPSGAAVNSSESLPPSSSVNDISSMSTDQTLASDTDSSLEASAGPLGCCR
Sequence of 363 human kinases (including Aurora A/B/C) (Homo sapiens, UniProt P41279) (P41279 whole entry): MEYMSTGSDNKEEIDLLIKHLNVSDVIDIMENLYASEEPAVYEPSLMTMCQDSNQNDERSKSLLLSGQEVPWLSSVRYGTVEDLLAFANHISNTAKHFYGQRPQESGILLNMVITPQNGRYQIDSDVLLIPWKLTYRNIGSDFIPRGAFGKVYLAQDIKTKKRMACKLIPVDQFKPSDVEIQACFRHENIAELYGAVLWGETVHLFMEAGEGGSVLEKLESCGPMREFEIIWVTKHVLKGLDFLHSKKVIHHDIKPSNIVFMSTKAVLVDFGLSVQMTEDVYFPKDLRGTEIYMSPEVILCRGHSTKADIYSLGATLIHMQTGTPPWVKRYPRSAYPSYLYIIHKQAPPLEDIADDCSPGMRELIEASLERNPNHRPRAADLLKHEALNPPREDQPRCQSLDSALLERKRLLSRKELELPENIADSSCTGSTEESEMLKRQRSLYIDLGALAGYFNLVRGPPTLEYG

Which results are given for `CCn1cc(-c2ccnc3[nH]c(-c4cccc(CN(C)C)c4)cc23)c(-c2ccc(NC(=O)N(C)C)cc2)n1` [GSK1070916]?
remaining activity at 0.1 µM [1]: 99.2%; remaining activity at 0.1 µM [2]: 89.4%; remaining activity at 0.1 µM [3]: 125%; remaining activity at 0.1 µM [4]: 83%; remaining activity at 0.1 µM [5]: 87.8%; remaining activity at 0.1 µM [6]: 93.6%; remaining activity at 0.1 µM [7]: 97.8%; remaining activity at 0.1 µM [8]: 94%; remaining activity at 0.1 µM [9]: 100%; remaining activity at 0.1 µM [10]: 92.6%

What does the source list for `O=C(O)[C@]1(Cc2cccc(Nc3nccs3)n2)CC[C@@H](Oc2cccc(Cl)c2F)CC1` [MK-5108]?
remaining activity at 0.1 µM [1]: 96.7%; remaining activity at 0.5 µM ([1]; 500 nM): 67.8%; remaining activity at 0.1 µM [2]: 98.7%; remaining activity at 0.5 µM ([2]; 500 nM): 140%; remaining activity at 0.1 µM [3]: 91.7%; remaining activity at 0.5 µM ([3]; 500 nM): 126%; remaining activity at 0.1 µM [4]: 101%; remaining activity at 0.5 µM ([4]; 500 nM): 91.3%; remaining activity at 0.1 µM [5]: 101%; remaining activity at 0.5 µM ([5]; 500 nM): 91%; remaining activity at 0.1 µM [6]: 95.8%; remaining activity at 0.5 µM ([6]; 500 nM): 95.7%; remaining activity at 0.1 µM [7]: 98.3%; remaining activity at 0.5 µM ([7]; 500 nM): 80.5%; remaining activity at 0.1 µM [8]: 96.1%; remaining activity at 0.5 µM ([8]; 500 nM): 98.7%; remaining activity at 0.1 µM [9]: 68.8%; remaining activity at 0.5 µM ([9]; 500 nM): 40.6%; remaining activity at 0.1 µM [10]: 97.5%; remaining activity at 0.5 µM ([10]; 500 nM): 78.1%

Which “% Enzyme Activity (relative to DMSO controls)” value ([1]; 500 nM) does the source give for `O=C(c1cccc(Cl)c1F)N1CCN(Cc2cccc(Nc3nccs3)n2)CC1` [MK-8745] here?
Its value is 90.76%.

What about the remaining activity at 0.5 µM ([1]; 500 nM) of the same compound?
The remaining activity at 0.5 µM was 90.8%.

What about the “% Enzyme Activity (relative to DMSO controls)” value ([2]; 500 nM) of the same compound?
Its value is 124.49%.

And the remaining activity at 0.5 µM ([2]; 500 nM)?
The remaining activity at 0.5 µM was 126%.

What about the “% Enzyme Activity (relative to DMSO controls)” value ([3]; 500 nM) of the same compound?
Its value is 106.52%.

What about the remaining activity at 0.5 µM ([3]; 500 nM) of the same compound?
The remaining activity at 0.5 µM was 118%.

What about the “% Enzyme Activity (relative to DMSO controls)” value ([4]; 500 nM) of the same compound?
The value was 94.05%.

What about the remaining activity at 0.5 µM ([4]; 500 nM) of the same compound?
The remaining activity at 0.5 µM was 95.9%.

And the “% Enzyme Activity (relative to DMSO controls)” value ([5]; 500 nM)?
The value was 88.35%.

What about the remaining activity at 0.5 µM ([5]; 500 nM) of the same compound?
The remaining activity at 0.5 µM was 91.3%.

What about the “% Enzyme Activity (relative to DMSO controls)” value ([6]; 500 nM) of the same compound?
Its value is 95.67%.

What about the remaining activity at 0.5 µM ([6]; 500 nM) of the same compound?
The remaining activity at 0.5 µM was 97.9%.

What about the “% Enzyme Activity (relative to DMSO controls)” value ([7]; 500 nM) of the same compound?
The value was 89.30%.

And the remaining activity at 0.5 µM ([7]; 500 nM)?
The remaining activity at 0.5 µM was 91.1%.

What about the “% Enzyme Activity (relative to DMSO controls)” value ([8]; 500 nM) of the same compound?
The value was 78.39%.

And the remaining activity at 0.5 µM ([8]; 500 nM)?
The remaining activity at 0.5 µM was 78.8%.

What about the “% Enzyme Activity (relative to DMSO controls)” value ([9]; 500 nM) of the same compound?
Its value is 100.04%.

And the remaining activity at 0.5 µM ([9]; 500 nM)?
The remaining activity at 0.5 µM was 102%.

And the “% Enzyme Activity (relative to DMSO controls)” value ([10]; 500 nM)?
Its value is 97.14%.

What about the remaining activity at 0.5 µM ([10]; 500 nM) of the same compound?
The remaining activity at 0.5 µM was 97.6%.
